# Data reported in patent US8536354B2, “Steroidal ligands and their use in gene switch modulation” (Intrexon Corporation, priority 2008, dated 2013).
# Read-outs that look alike come from different tables or passages of the source.
# Key:
# [1] = biological target: BmEcR (GAL4-EcR DEF with VP16-RXR-USP chimera) (Bombyx mori, UniProt P49881); test: Two-hybrid gene switch assay, luciferase reporter, BmEcR, mouse NIH3T3 cells; type: cell-based
# [2] = biological target: T1, MsEcR (GAL4-EcR DEF with VP16-RXR-USP chimera) (Manduca sexta, UniProt P49883); test: Two-hybrid gene switch assay, luciferase reporter, MsEcR, mouse NIH3T3 cells
# T1 sequence (P49883 1-556): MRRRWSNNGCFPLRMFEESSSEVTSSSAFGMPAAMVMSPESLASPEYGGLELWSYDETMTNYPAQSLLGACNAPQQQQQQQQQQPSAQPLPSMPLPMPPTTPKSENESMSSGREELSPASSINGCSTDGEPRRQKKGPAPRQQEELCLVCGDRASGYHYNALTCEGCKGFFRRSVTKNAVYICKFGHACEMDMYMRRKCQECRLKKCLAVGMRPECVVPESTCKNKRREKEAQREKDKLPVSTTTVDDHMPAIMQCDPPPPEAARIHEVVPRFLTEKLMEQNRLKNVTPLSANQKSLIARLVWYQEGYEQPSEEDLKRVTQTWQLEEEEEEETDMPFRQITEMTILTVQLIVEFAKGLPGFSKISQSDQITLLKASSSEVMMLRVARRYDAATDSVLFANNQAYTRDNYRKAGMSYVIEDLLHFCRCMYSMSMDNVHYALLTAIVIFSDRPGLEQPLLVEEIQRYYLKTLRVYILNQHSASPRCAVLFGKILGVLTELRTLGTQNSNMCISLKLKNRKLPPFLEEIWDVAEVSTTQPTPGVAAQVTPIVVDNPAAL
# T1 sequence (P28702 1-533 partner): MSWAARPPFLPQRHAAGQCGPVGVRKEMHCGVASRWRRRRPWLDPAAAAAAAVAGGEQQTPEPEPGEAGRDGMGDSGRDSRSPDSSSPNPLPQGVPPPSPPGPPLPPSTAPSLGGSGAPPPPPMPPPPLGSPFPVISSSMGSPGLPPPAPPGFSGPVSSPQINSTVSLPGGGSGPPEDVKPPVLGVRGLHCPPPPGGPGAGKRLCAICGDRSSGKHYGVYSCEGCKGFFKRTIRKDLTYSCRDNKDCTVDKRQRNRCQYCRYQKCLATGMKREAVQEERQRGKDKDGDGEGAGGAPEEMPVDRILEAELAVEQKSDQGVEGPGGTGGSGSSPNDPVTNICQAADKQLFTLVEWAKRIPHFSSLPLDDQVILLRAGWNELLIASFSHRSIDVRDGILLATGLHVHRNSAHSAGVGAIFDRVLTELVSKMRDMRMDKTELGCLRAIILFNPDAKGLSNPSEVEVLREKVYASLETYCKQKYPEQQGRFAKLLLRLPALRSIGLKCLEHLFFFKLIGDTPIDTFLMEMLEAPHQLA
# [3] = tested on: NcEcR (GAL4-EcR DEF with VP16-RXR partner); test: Two-hybrid gene switch assay, luciferase reporter, NcEcR, mouse NIH3T3 cells
# [4] = EC50, FIG. 13A/13B, GAL4-EcR(DEF) with VP16-RXR-USP chimera
# [5] = EC50, FIG. 13A/13B, BmEcR, GAL4-EcR(DEF) with VP16-RXR-USP chimera
# [6] = EC50, FIG. 15, BmEcR, GAL4-EcR (DEF) / VP16-RXR-USP chimera
# [7] = EC50, FIG. 15, GAL4-EcR (DEF) / VP16-RXR-USP chimera
# BmEcR (GAL4-EcR DEF with VP16-RXR-USP chimera), sequence (P49881 other isoform, or with tags, fused parts or gaps, change not shown): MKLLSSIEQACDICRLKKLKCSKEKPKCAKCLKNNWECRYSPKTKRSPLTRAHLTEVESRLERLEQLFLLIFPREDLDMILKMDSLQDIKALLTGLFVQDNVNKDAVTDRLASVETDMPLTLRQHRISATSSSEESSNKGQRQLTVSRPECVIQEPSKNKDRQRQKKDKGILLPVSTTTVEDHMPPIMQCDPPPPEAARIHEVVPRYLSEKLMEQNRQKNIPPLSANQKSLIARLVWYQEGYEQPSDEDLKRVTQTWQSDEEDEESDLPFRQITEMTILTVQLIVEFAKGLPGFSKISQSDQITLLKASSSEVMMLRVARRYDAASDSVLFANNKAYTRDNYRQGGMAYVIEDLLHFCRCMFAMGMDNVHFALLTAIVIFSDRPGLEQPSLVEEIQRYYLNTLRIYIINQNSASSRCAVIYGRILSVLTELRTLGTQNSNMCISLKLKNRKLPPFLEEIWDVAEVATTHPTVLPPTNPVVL
Structure (SMILES),EC50 ([1]; read-out: EC50),"EC50 [2, 4]","EC50 ([3]; FIG. 14A/14B, GAL4-EcR(DEF))","EC50 [1, 5]","EC50 [1, 6]","EC50 [2, 7]","EC50 ([3]; FIG. 16, GAL4-EcR (DEF))",EC50 [1]
C[C@H](CO)CC[C@@H](O)[C@](C)(O)[C@H]1CC[C@@]2(O)C3=CC(=O)[C@@H]4C[C@@H](O)[C@@H](O)C[C@]4(C)[C@H]3CC[C@]12C [(25S)-inokosterone],> 33 µM,~10 µM,~1.5 µM,–,–,–,–,–
CC(=O)O[C@H](CCC(C)(C)O)[C@](C)(O)[C@H]1CC[C@@]2(O)C3=CC(=O)[C@@H]4C[C@@H](O)[C@@H](O)C[C@]4(C)[C@H]3CC[C@]12C [Compound 20-hydroxyecdysone-22-acetate],> 33 µM,~2 µM,2.44 µM,–,–,–,–,–
C[C@@H](CO)CC[C@@H](O)[C@](C)(O)[C@H]1CC[C@@]2(O)C3=CC(=O)[C@@H]4C[C@@H](O)[C@@H](O)C[C@]4(C)[C@H]3CC[C@]12C [(25R)-inokosterone],> 33 µM,~10 µM,0.867 µM,–,–,–,–,–
CC(C)(O)CC[C@@H](O)[C@](C)(O)[C@H]1CC[C@@]2(O)C3=CC(=O)[C@@H]4C[C@@H](O)[C@@H](O)[C@@H](O)[C@]4(C)[C@H]3CC[C@]12C [integristerone A],> 33 µM,~12 µM,~2 µM,–,–,–,–,–
CC1(C)OC(=O)C=C1CC(O)C(C)(O)C1CCC2(O)C3=CC(=O)C4CC(O)C(O)CC4(C)C3CCC12C (centres unmarked) [carthamosterone],> 33 µM,> 33 µM,~10 µM,–,–,–,–,–
C[C@H]([C@H](O)CCC(C)(C)O)[C@H]1CC[C@@]2(O)C3=CC(=O)[C@@H]4C[C@@H](O)[C@@H](O)C[C@]4(C)[C@H]3CC[C@]12C [ecdysone],–,> 33 µM,3.27 µM,> 33 µM,> 33 µM,> 33 µM,2.52 µM,–
CCC(CC(O)C(C)(O)C1CCC2(O)C3=CC(=O)C4CC(O)C(O)CC4(C)C3CCC12C)C(C)(C)O (centres unmarked) [makisterone C],> 33 µM,~4 µM,~0.1 µM,–,–,–,–,–
CC(C)(O)CC[C@@H](O)[C@](C)(O)[C@H]1CC[C@@]2(O)C3=C[C@@H](O)[C@@H]4C[C@@H](O)[C@@H](O)C[C@]4(C)[C@H]3CC[C@]12C [Compound 6b-hydroxy-20-hydroxyecdysone],–,~12 µM,1.7 µM,–,–,–,–,> 33 µM
CC(C)(O)CC[C@@H](O)[C@](C)(O)[C@H]1CC[C@@]2(O)C3=C[C@H](O)[C@@H]4C[C@@H](O)[C@@H](O)C[C@]4(C)[C@H]3CC[C@]12C [Compound 6a-hydroxy-20-hydroxyecdysone],–,> 33 µM,~10 µM,–,–,–,–,> 33 µM
CC(C)(O)CC[C@@H](O)[C@](C)(O)[C@H]1CC[C@@]2(O)C3=CC(=O)[C@@H]4C[C@@H](O)[C@@H](O)C[C@]4(C)C3=CC[C@]12C [Compound 25-hydroxydacryhainansterone],–,~10 µM,1.26 µM,–,–,–,–,> 33 µM
CC(C)(O)CC[C@@H](OC(=O)c1ccc[nH]1)[C@](C)(O)[C@H]1CC[C@@]2(O)C3=CC(=O)[C@@H]4C[C@@H](O)[C@@H](O)C[C@]4(C)[C@H]3CC[C@]12C,–,> 33 µM,~5 µM,–,–,–,–,> 33 µM
CCCCCC(=O)OC1CC2(C)C(C(C)(O)C(O)CCC(C)(C)O)CCC2(O)C2=CC(=O)C3CC(O)C(O)CC3(C)C21 (centres unmarked) [turkesterone-11 a -hexanoate],–,> 33 µM,~7 µM,> 33 µM,–,–,–,–
CCCCCCCCCC(=O)OC1CC2(C)C(C(C)(O)C(O)CCC(C)(C)O)CCC2(O)C2=CC(=O)C3CC(O)C(O)CC3(C)C21 (centres unmarked) [turkesterone-11a-decanoate],–,> 33 µM,> 33 µM,> 33 µM,–,–,–,–
CC(=O)OCC(=O)O[C@H](CCC(C)(C)O)[C@](C)(O)[C@H]1CC[C@@]2(O)C3=CC(=O)[C@@H]4C[C@@H](O)[C@@H](O)C[C@]4(C)[C@H]3CC[C@]12C [20-hydroxyecdysone 22-acetoxyacetate],–,~10 µM,0.755 µM,–,–,–,–,> 33 µM
CC(C)CC[C@@H](O)[C@](C)(O)[C@H]1CC[C@@]2(O)C3=CC(=O)[C@@H]4C[C@@H](O)[C@@H](O)C[C@]4(C)[C@H]3[C@H](O)C[C@]12C [ajugasterone C],–,~7 µM,0.08 µM,~10 µM,–,–,–,–
CC(C(O)CCC(C)(C)O)C1CCC2(O)C3=CC(=O)C4CC(O)CCC4(C)C3CCC12C (centres unmarked) [Compound 2-deoxyecdysone],> 33 µM,> 33 µM,~6 µM,–,–,–,–,–
CC(C)(O)C(CCC(C)(O)C1CCC2(O)C3=CC(=O)C4CC(O)C(O)CC4(C)C3CCC12C)OC(=O)c1ccc[nH]1 (centres unmarked) [canescensterone],–,> 10 µM,~0.33 µM,–,–,–,–,> 10 µM
"CC(C)(O)CC[C@@H](O)[C@](C)(O)[C@H]1CC[C@@]2(O)C3=CC(=O)[C@@H]4C[C@H]5OC(C)(C)O[C@H]5C[C@]4(C)[C@H]3CC[C@]12C [20-hydroxyecdysone-2,3-acetonide]",–,~10 µM,2.9 µM,–,–,–,–,> 33 µM
CC(C)(O)CC[C@@H](O)[C@](C)(O)[C@H]1CC[C@@]2(O)C3=CC(=O)[C@]4(O)C[C@@H](O)[C@@H](O)C[C@]4(C)[C@H]3CC[C@]12C [polypodine B],–,~2 µM,~0.1 µM,~8 µM,~9 µM,4.35 µM,0.05 µM,–
CC(CC(O)C(C)(O)C1CCC2(O)C3=CC(=O)C4CC(O)C(O)CC4(C)C3CCC12C)C(C)(C)O (centres unmarked) [makisterone A],> 33 µM,~10 µM,0.117 µM,–,–,–,–,–
CC(C)(O)CCC(=O)[C@](C)(O)[C@H]1CC[C@@]2(O)C3=CC(=O)[C@@H]4C[C@@H](O)[C@@H](O)C[C@]4(C)[C@H]3CC[C@]12C [Compound 22-dehydro-20-hydroxyecdysone],–,10.3 µM,1.84 µM,–,–,–,–,> 33 µM
CC(C)=CC[C@@H](O)[C@](C)(O)[C@H]1CC[C@@]2(O)C3=CC(=O)[C@@H]4C[C@@H](O)[C@@H](O)C[C@]4(C)[C@H]3CC[C@]12C [stachysterone C],–,0.672 µM,0.013 µM,~5 µM,–,–,–,–
CC(C)(O)CC[C@@H](O)[C@](C)(O)[C@H]1CC[C@@]2(O)C3=CC(=O)[C@@H]4C[C@@H](O)[C@@H](O)C[C@]4(C)[C@H]3[C@H](O)C[C@]12C [turkesterone],–,~12 µM,1.35 µM,> 33 µM,–,–,–,–
C[C@@H]1C(=O)O[C@H](C)[C@H]1C[C@@H](O)[C@](C)(O)[C@H]1CC[C@@]2(O)C3=CC(=O)[C@@H]4C[C@@H](O)[C@@H](O)C[C@]4(C)[C@H]3CC[C@]12C [cyasterone],–,1.53 µM,1.82 µM,–,–,–,–,–
CCC(=O)OC1CC2(C)C(C(C)(O)C(O)CCC(C)(C)O)CCC2(O)C2=CC(=O)C3CC(O)C(O)CC3(C)C21 (centres unmarked) [turkesterone-11 a -propionate],–,> 33 µM,~10 µM,> 33 µM,–,–,–,–
